The test system of test [1] is aminoacyl-tRNA synthetases (aaRS). In words: aaRS charging and trichloroacetic acid precipitation assay, IC50 (S. aureus). It is filed as biochemical. The settings on record: aaRS of S. aureus; values are range classes. How it is done: (§1) IC50 determinations for the aminoacyl-tRNA synthetases (aaRS) isolated from pathogen or HeLa cells were carried out using a modification of the aaRS charging and trichloroacetic acid precipitation assay described previously (see examples: D. Kern et. al., Biochemie, 61, 1257-1272 (1979) and J. Gilbart et. al. Antimicrobial Agents and Chemotherapy, 37(1), 32-38 (1993)). The aaRS enzymes were prepared via standard cloning and expression methods and partially purified or partially purified from pathogen and HeLa cell extracts. The activity of each aaRS enzyme was standardized as trichloroacetic acid precipitable counts (cpm) obtained at 10 minutes reaction time at Km concentrations of substrates. For practical purposes, the minimal acceptable value is approximately 2000 cpm per 10 minute reaction.
(§2) Preincubations for IC50 determinations were initiated by incubating partially purified aaRS extracts in 50 mM HEPES (pH 7.5), 0.1 mM EDTA, 0.05 mg/ml bovine serum albumin, 10 mM dithiothreitol and 2.5% dimethyl sulfoxide with and without test compound (e.g. compound of the invention (preferably a compound of Formula I)) in a final volume of 20 microliters in a microtiter plate for 20 minutes at 25 C. Test compounds were typically present as serial dilutions in concentration ranges of 0.35 nM to 35 μM. Test compound solutions were prepared by dissolving test compound in 100% dimethyl sulfoxide and diluting to the final concentration with 50 mM HEPES, pH 7.5. IC50 determinations were typically performed in duplicate with each experiment containing 4-8 concentrations of inhibitor along with two no inhibitor controls.
(§3) IC50 incubations were initiated by supplementing the preincubation mixture to a final assay concentration of 10 mM MgCl2, 30 mM KCl, 10 mM KF, 50 mM HEPES (pH 7.5), 20 μM-500 mM ATP, 2-20 μM [^3H] amino acid, and 90-180 μM crude tRNA in a final volume of 35 microliters. The reaction was incubated at 25° C. for 5-20 minutes. At specified time points a 15 microliter aliquot was removed and added to a well of a Millipore filtration plate (Multiscreen-FB, MAFB NOB 10) containing 100 microliters of cold 5% (wt/vol) trichloroacetic acid. Trichloroacetic acid precipitable material was collected by filtration on Millipore Multiscreen filtration station, washed twice with cold 5% trichloroacetic acid, twice with water, and dried. Plates were typically allowed to air dry for several hours or they were baked at 50° C. in a vacuum oven for 30 minutes. The radioactivity on the dried plates was quantitated by the addition of Packard Microscint-20 to the wells and counting with a Packard TopCount scintillation counter.
(§4) Inhibitor activity was typically reported as a percentage of the control aaRS activity. The IC50 value was determined by plotting percent activity versus compound concentration in the assay and identifying the concentration at which 50% of the activity was remaining.

Test [2] has the same test system. In words: aaRS charging and trichloroacetic acid precipitation assay, IC50 (E. faecalis). It is filed as biochemical. Conditions: aaRS of E. faecalis; values are range classes. The protocol:
as §1, §2, §3, §4

For test [3], the system named is S. aureus. The test is described as follows: Whole cell antimicrobial screen, MIC (S. aureus). The test is classed as cell-based. Conditions: 2-fold dilutions, overnight incubation; for MIC: Staphylococcus aureus, read-out: MIC (μg/mL) Sa. The protocol:
(§5) Compounds were tested for antimicrobial activity against a panel of organisms according to standard procedures described by the National Committee for Clinical Laboratory Standards (NCCLS document M7-A3, Vol. 13, No. 25, 1993/NCCLS document M27-P, Vol. 12, No. 25, 1992). Compounds were dissolved in 100% DMSO and were diluted to the final reaction concentration (0.1 μg/ml-500 μg/ml) in microbial growth media. In all cases the final concentration of DMSO incubated with cells is less than or equal to 1%. For minimum inhibitory concentration (MIC) calculations, 2-fold dilutions of compounds were added to wells of a microtiter plate containing 1×10^5 bacteria or fungal cells in a final volume of 200 lambda of an appropriate media (Mueller-Hinton Broth; Haemophilus Test Media; Mueller-Hinton Broth+5% Sheep Blood; or […]). Plates were incubated overnight at an appropriate temperature (30° C.-37° C.) and optical densities (measure of cell growth) were measured using a commercial plate reader. The MIC value is defined as the lowest compound concentration inhibiting growth of the test organism.

Test [4] relates to E. faecalis. The test is described as follows: Whole cell antimicrobial screen, MIC (Efs). It is filed as cell-based. Conditions: 2-fold dilutions, overnight incubation; for MIC: Enterococcus faecalis, read-out: MIC (μg/mL) Efs. How it is done: as §5
Test [5] relates to E. faecium. In words: Whole cell antimicrobial screen, MIC (E. faecium). It is filed as cell-based. The settings on record: 2-fold dilutions, overnight incubation; for MIC: Enterococcus faecium, read-out: MIC (μg/mL) Efm. The protocol: as §5

SMILES strings stand for the structures. ≈ marks a conversion by molar mass, not a printed value.

Consider `O=C(NCc1nc2ccccc2[nH]1)C1CC(=NO)CN1Cc1ccc(Cl)cc1Cl` (stereo not shown) [130,707], for which the IC50 in test [1] and in test [2] was 1000 to 10000 nM in each case. For the same molecule, the MIC in test [3], in test [4] and in test [5] was greater than 100 µg/mL each time.

With `O=C(O)CC1CC(C(=O)NCc2nc3ccccc3[nH]2)N(Cc2ccc(Cl)cc2Cl)C1` (stereo not shown) [130,973], the IC50 in test [1] and in test [2] was less than 500 nM throughout. Also, the MIC in test [3], in test [4] and in test [5] was greater than 100 µg/mL throughout.

On to `O=C(NCc1nc2ccccc2[nH]1)[C@@H]1CCCN1Cc1ccc(Cl)cc1Cl` [126,881], for which the IC50 (usually the concentration at which inhibition is half-maximal) in test [1] was less than 500 nM; in test [2], 1000 to 10000 nM. Besides, the MIC in test [3] was 100 µg/mL (≈ 248 µM); in test [4] it was less than 100 µg/mL.

Regarding `O=C(NCc1nc2ccccc2[nH]1)C1CC(OCc2ccccc2)CN1Cc1ccc(Cl)cc1Cl` (stereo not shown) [127,889], the IC50 in test [1] and in test [2] was 1000 to 10000 nM throughout. Moreover, the MIC in test [3], in test [4] and in test [5] was greater than 100 µg/mL throughout.

As for `Clc1ccc(CN2CCC[C@H]2COCc2nc3ccccc3[nH]2)c(Cl)c1` [130,928], the IC50 in test [1] and in test [2] was 1000 to 10000 nM throughout. In addition, the “MIC (μg/mL) Sa” value in test [3] came to 100 µg/mL (≈ 256 µM). For the same molecule, in test [4], the “MIC (μg/mL) Efs” value is greater than 100 µg/mL. Further, the “MIC (μg/mL) Efm” value in test [5] was 100 µg/mL (≈ 256 µM).

As for `N#CC1CC(C(=O)NCc2nc3ccccc3[nH]2)N(Cc2ccc(Cl)cc2Cl)C1` (stereo not shown) [127,566], the IC50 in test [1] and in test [2] was 1000 to 10000 nM each time. For the same molecule, the MIC in test [3], in test [4] and in test [5] was greater than 100 µg/mL each time.

As to `CON=C1CC(C(=O)NCc2nc3ccccc3[nH]2)N(Cc2ccc(Cl)cc2Cl)C1` (stereo not shown) [130,708], the IC50 in test [1] and in test [2] was 1000 to 10000 nM throughout. For the same molecule, the MIC in test [3], in test [4] and in test [5] was greater than 100 µg/mL each time.

Consider `O=C1C[C@@H](C(=O)NCc2nc3ccccc3[nH]2)N(Cc2ccc(Cl)cc2Cl)C1` [130,692], for which the IC50 in test [1] and in test [2] was 1000 to 10000 nM throughout. Further, the MIC in test [3], in test [4] and in test [5] was greater than 100 µg/mL in each case.

As to `O=C(NCc1nc2ccccc2[nH]1)[C@@H]1CC(O)CN1Cc1ccc(Cl)cc1Cl` (stereo partly shown) [127,006], the values for the IC50 in test [1] and in test [2] were less than 500 nM and 1000 to 10000 nM, respectively. Further, the MIC in test [3], in test [4] and in test [5] was less than 100 µg/mL in each case.

Consider `O=C(NCc1nc2ccccc2[nH]1)[C@H]1CCCN1Cc1ccc(Cl)cc1Cl` [130,724], for which the IC50 in test [1] and in test [2] was 1000 to 10000 nM throughout. Moreover, the “MIC (μg/mL) Sa” value in test [3] is less than 100 µg/mL. Also, in test [4], the “MIC (μg/mL) Efs” value was greater than 100 µg/mL. Further, the “MIC (μg/mL) Efm” value in test [5] is greater than 100 µg/mL.

Turning to `O=C(NCc1nc2ccccc2[nH]1)[C@@H]1C[C@H](O)CN1Cc1ccc(Cl)cc1Cl` [130,900], the IC50 in test [1] and in test [2] was less than 500 nM each time. Besides, the “MIC (μg/mL) Sa” value in test [3] was 100 µg/mL (≈ 238 µM). Also, the “MIC (μg/mL) Efs” value in test [4] was less than 100 µg/mL. For the same molecule, the “MIC (μg/mL) Efm” value in test [5] was 100 µg/mL (≈ 238 µM).

Turning to `O=C(O)CON=C1CC(C(=O)NCc2nc3ccccc3[nH]2)N(Cc2ccc(Cl)cc2Cl)C1` (stereo not shown) [130,709], the IC50 in test [1] and in test [2] was 1000 to 10000 nM throughout. For the same molecule, the MIC in test [3], in test [4] and in test [5] was greater than 100 µg/mL throughout.

As to `O=C(NCc1nc2ccccc2[nH]1)C1CC(c2nn[nH]n2)CN1Cc1ccc(Cl)cc1Cl` (mixture of isomers) [130,706], the concentration for half-maximal inhibition (IC50) in test [1] and in test [2] was less than 500 nM throughout. Moreover, in test [3], the “MIC (μg/mL) Sa” value is greater than 100 µg/mL. For the same molecule, the “MIC (μg/mL) Efs” value in test [4] is greater than 100 µg/mL. For the same molecule, the “MIC (μg/mL) Efm” value in test [5] was greater than 100 µg/mL.

For the molecule `O=C(NCc1nc2ccccc2[nH]1)[C@@H]1C[C@@H](O)CN1Cc1ccc(Cl)cc1Cl` [130,901], the IC50 in test [1] was less than 500 nM; in test [2] it was 501 to 1000 nM. For the same molecule, in test [3], the “MIC (μg/mL) Sa” value is less than 100 µg/mL. In addition, the “MIC (μg/mL) Efs” value in test [4] is less than 100 µg/mL. Further, in test [5], the “MIC (μg/mL) Efm” value is less than 100 µg/mL.

Regarding `O=C(NCc1nc2ccccc2[nH]1)C1CC(O)CN1Cc1ccc(Cl)cc1Cl` (stereo not shown) [130,725], the IC50 in test [1] and in test [2] was 10000 to 60000 nM in each case. The “MIC (μg/mL) Sa” value in test [3] was greater than 100 µg/mL. Besides, in test [4], the “MIC (μg/mL) Efs” value was greater than 100 µg/mL. For the same molecule, the “MIC (μg/mL) Efm” value in test [5] was greater than 100 µg/mL.

Take `O=C(NCc1nc2ccccc2[nH]1)[C@@H]1CCCCN1Cc1ccc(Cl)cc1Cl` [130,693]: the IC50 in test [1] and in test [2] was 1000 to 10000 nM each time. For the same molecule, the “MIC (μg/mL) Sa” value in test [3] is less than 100 µg/mL. For the same molecule, the “MIC (μg/mL) Efs” value in test [4] is greater than 100 µg/mL. The “MIC (μg/mL) Efm” value in test [5] is 100 µg/mL (≈ 240 µM).

Source of the values: patent publication US6579894B2, “Prolines as antimicrobial agents” (Merck & Co., Inc., priority 1999, dated 2003).
